Measured values: patent US10851402B2, “Method for in vitro detection and monitoring of a disease by measuring disease-associated protease activity in extracellular vesicles” (Friedrich-Alexander-Universitaet Erlangen-Nuernberg, priority 2013, dated 2020)

What was measured:
[1] = test system: resting PBMC; assay: TNFα secretion of resting PBMC after incubation with EV; type: cell-based; conditions: EV-producing cells incubated with the inhibitor; EV incubated with resting PBMC (6 hours)
Method: PBMC stimulation with EV and measurement of Cytokine Secretion. PBMC ([…]) were added to each well of a 96-well-U-bottom plate in a total volume of 200 μl (RPMI). 10 μl of exosome preparation from transfected cells (corresponding to 2×10^6 cells or one 10 cm dish) were added per well and […]. When indicated 10 μl PHA (positive control), 50 μM TAPI-1 (Peptides International), or 10 μM U0126 (MAPK-Inhibitor, Promega) were used. Cytokines in the supernatant (200 μl) were measured via the CBA (Cytometric Bead Array) Human Soluble Protein Flex Set System (BD Biosciences).
For confirmation we incubated EV with resting PBMC (6 hours) and measured TNFα release.

[2] = biological target: T1, TACE (Homo sapiens, UniProt P78536); assay: GFP-proTNF-RFP cleavage and endogenous TACE activity in Nef/mNAKC transfected 293T cells; type: cell-based; conditions: exposure of cultured 293T cells to TAPI
T1 construct: endogenous in cells; host or cells: 293T cells transfected with Nef/mNAKC (TACE itself not transfected)
T1 sequence (P78536 215-824): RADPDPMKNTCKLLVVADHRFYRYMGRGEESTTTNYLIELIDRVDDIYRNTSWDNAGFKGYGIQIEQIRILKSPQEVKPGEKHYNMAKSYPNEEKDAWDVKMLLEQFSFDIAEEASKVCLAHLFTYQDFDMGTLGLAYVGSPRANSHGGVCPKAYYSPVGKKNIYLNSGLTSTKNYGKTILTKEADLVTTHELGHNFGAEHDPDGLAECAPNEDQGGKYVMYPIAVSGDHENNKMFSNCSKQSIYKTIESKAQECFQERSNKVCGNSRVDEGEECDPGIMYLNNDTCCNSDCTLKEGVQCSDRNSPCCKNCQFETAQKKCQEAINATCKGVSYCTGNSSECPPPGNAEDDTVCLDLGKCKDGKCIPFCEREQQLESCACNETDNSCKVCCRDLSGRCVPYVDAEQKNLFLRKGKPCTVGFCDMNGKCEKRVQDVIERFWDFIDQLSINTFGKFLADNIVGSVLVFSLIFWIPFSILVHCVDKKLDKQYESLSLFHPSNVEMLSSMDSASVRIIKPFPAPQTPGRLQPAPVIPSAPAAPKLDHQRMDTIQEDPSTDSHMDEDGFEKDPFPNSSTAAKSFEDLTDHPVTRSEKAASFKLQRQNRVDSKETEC
Method: Transfections into 293T cells and protein assays. Transient transfections into 293T cells as well as immunoprecipitations and immunoblots were performed as described previously (Baur et al., 1997; Witte et al., 2004; Wolf et al., 2008). In general 20 μg of cellular protein lysate and 10 μg of EV lysate were loaded per lane. The latter corresponded to the secretion from 2-4 mio 293T cells within 48 h. Endogenous TACE activity was measured using SensoLyte®520 TACE (α-Secretase) Activity Assay Kit from AnaSpec, according to the manufacturer's procedures. Cell lysates were generated from 293T cells 24 h after tranfection of Nef/mNAKC. […]
While TACE seemed to be activated by Nef/mNAKC, it was not clear whether and where the protease was functionally active. […] We constructed a GFP-proTNF-RFP fusion protein (G-proTNF-R; FIG. 5A), expecting that the full-length protein would give a yellow signal, which upon TACE-mediated cleavage would mature into prodomain-associated green (GFP) and TNFα-associated red (RFP) fluorescence. […]
In 293T cells the transfected G-proTNF-R construct gave a double positive (GFP/RFP) signal in FACS and a yellow staining in confocal images (FIGS. 5B and E). […] In addition, we measured an increased activity of endogenous TACE in Nef/mNAKC transfected 293T cells using a commercial, substrate-based activity assay (FIG. 20B). […]

| effect of Nef/mNAKC and TACE on G-proTNF-R cleavage and endogenous TACE activity [2] | SMILES | TNFα release [1] |
| --- | --- | --- |
| reversed | CC(C)C[C@H](CC(=O)NO)C(=O)N[C@@H](Cc1ccc2ccccc2c1)C(=O)N[C@@H](C)C(=O)NCCN [TAPI] | significantly reduced |
|  | Oc1ccc2ccccc2c1SSc1c(O)ccc2ccccc12 [IPA-3] | significantly reduced |
|  | N#CC(=C(/N)Sc1ccccc1N)/C(C#N)=C(\N)Sc1ccccc1N [U0126] | significantly reduced |
